Laboratory results published in US9732094B2, “Arylquinazolines” (Merck Patent GmbH, priority 2013, dated 2017).
Read-outs that look alike come from different tables or passages of the source.

Experiments:
[1] = target: DNA-PK phosphorylation at serine 2056 (Homo sapiens (Human), UniProt P78527); assay: DNA-PK phosphorylation at serine 2056 (cellular), bleomycin-treated HCT116 cells, ELISA; assay type: cell-based; conditions: read-out: IC50 pDNA-PK
Method in brief: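 HCT116 cells were treated with 10 μM bleomycin plus test compounds for six hours at 37 °C. Phospho-Ser2056 DNA-PK measured by chemiluminescent ELISA, normalised to total DNA-PKcs signal; DMSO control as blank.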

Kv11.1 (hERG) = Kv11.1 (hERG) (Homo sapiens (Human), UniProt Q12809); assay: Kv11.1 (hERG) ion channel activity (patch clamp assay), HEK293 cells transfected with hERG gene
Sequence of Kv11.1 (hERG) (Q12809 whole entry): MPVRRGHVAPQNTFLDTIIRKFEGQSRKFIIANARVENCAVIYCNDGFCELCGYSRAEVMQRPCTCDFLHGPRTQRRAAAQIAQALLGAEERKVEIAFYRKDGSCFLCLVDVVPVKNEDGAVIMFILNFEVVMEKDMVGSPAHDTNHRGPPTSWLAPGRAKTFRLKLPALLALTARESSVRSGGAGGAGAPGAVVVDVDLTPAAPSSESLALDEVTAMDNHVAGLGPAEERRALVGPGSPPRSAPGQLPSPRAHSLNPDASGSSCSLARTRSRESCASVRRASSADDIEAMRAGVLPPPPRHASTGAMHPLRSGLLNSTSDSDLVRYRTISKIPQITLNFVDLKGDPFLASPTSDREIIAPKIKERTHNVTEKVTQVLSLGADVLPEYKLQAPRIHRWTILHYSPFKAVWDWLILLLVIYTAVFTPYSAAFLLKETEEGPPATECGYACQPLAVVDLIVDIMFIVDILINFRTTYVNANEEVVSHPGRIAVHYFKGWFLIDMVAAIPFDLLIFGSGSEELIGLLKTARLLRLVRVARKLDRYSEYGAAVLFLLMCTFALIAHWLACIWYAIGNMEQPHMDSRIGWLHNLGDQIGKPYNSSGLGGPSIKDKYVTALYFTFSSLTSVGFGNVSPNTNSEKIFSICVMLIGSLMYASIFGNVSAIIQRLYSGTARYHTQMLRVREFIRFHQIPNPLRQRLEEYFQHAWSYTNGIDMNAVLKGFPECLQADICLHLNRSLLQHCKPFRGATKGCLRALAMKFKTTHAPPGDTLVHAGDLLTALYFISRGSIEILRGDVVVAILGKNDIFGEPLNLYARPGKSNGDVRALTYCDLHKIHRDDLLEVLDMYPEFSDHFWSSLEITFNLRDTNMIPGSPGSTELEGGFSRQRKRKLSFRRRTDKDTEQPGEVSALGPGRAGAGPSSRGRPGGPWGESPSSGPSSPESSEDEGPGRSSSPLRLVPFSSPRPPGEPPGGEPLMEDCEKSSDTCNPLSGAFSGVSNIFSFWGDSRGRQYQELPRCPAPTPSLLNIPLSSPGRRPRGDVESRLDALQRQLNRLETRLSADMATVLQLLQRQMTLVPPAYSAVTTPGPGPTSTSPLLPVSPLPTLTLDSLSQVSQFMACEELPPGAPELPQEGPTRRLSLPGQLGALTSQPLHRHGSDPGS

DNA-PK = DNA-PK (Homo sapiens (Human), UniProt P78527); assay: DNA-PK assay (biochemical), flashplate 33P-ATP kinase assay
Method in brief: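 Radiometric kinase reaction in streptavidin-coated flashplates, stopped with 200 mM EDTA, then 30 min room-temperature incubation and saline washes.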

[2] = cellular, HCT116 cells, 10 μM bleomycin, six hours
[3] = read-out: Ki [Kv1.11 hERG], Table 7
[4] = cellular DNA-PK phosphorylation at serine 2056, HCT116
[5] = Ki [Kv1.11 hERG], hERG patch clamp assay (cells without asterisk)
[6] = read-out: Ki [Kv1.11 hERG], hERG patch clamp assay (cells without asterisk)

Row | IC50 ([1]; Table 7, HCT116 cells) | IC50 (DNA-PK; Table 7) | IC50 [1, 4] | IC50 (DNA-PK; biochemical DNA-PK assay) | SMILES | Ki (Kv11.1 (hERG); [6]) | further results
1 |  |  |  |  | C#Cc1nc(-c2cc(C(O)c3nccs3)ccc2F)c2ccc(N3CCOCC3)cc2n1 (stereo not drawn) [Example 215, [3-(2-Ethynyl-7-morpholin-4-yl-quinazolin-4-yl)-4-fluorophenyl]-thiazol-2-yl-methanol] |  | IC50 [1, 2]: 5000 to 10000 nM; Ki (Kv11.1 (hERG); read-out: Ki [Kv1.11 hERG], patch clamp, HEK293 transfected with hERG gene): < 10000 nM; IC50 (DNA-PK; enzymatic, 5 μM ATP): < 3 nM
2 |  |  |  |  | C#Cc1nc(-c2cc(C(O)c3nccs3)ccc2F)c2ccc(N3CCOCC3)cc2n1 (stereo not drawn) [Example 216, [3-(2-Ethynyl-7-morpholin-4-yl-quinazolin-4-yl)-4-fluorophenyl]-thiazol-2-yl-methanol] |  | IC50 [1, 2]: 10000 to 30000 nM; Ki (Kv11.1 (hERG); Ki [Kv1.11 hERG], patch clamp, HEK293 transfected with hERG gene): 10000 to 15000 nM; IC50 (DNA-PK; enzymatic, 5 μM ATP): < 3 nM
3 | < 500 nM | 3 to 7 nM |  |  | OC(c1cccnc1)c1cc(-c2ncnc3cc(N4CCOCC4)ccc23)c(F)cc1F (stereo not drawn) [Example 217, [2,4-Difluoro-5-(7-morpholin-4-ylquinazolin-4-yl)phenyl]pyridin-3-ylmethanol] |  | Ki (Kv11.1 (hERG); [3]): > 25000 nM
4 | < 500 nM | 3 to 7 nM |  |  | OC(c1ccccn1)c1cc(-c2ncnc3cc(N4CCOCC4)ccc23)c(F)cc1F (stereo not drawn) [Example 218, [2,4-Difluoro-5-(7-morpholin-4-yl-quinazolin-4-yl)-phenyl]pyridin-2-yl-methanol] |  | Ki (Kv11.1 (hERG); Ki [Kv1.11 hERG], Table 7): 15000 to 25000 nM
5 | 500 to 5000 nM | 3 to 7 nM |  |  | Cn1nc(C(O)c2cc(-c3ncnc4cc(N5CCOCC5)ccc34)c(F)cc2F)ccc1=O (stereo not drawn) [Example 219, 6-{[2,4-Difluoro-5-(7-morpholin-4-yl-quinazolin-4-yl)-phenyl]hydroxy-methyl}-2-methyl-2H-pyridazin-3-one] |  | Ki (Kv11.1 (hERG); Ki [Kv1.11 hERG], Table 7): 15000 to 25000 nM
6 | 5000 to 10000 nM | > 30 nM |  |  | Cn1nc(C(O)c2ccc(F)c(-c3ncnc4cc(N5CCOCC5)ccc34)c2F)ccc1=O (stereo not drawn) [Example 220, 6-{[2,4-Difluoro-3-(7-morpholin-4-yl-quinazolin-4-yl)-phenyl]hydroxy-methyl}-2-methyl-2H-pyridazin-3-one] |  | Ki (Kv11.1 (hERG); [3]): > 25000 nM
7 | 500 to 5000 nM | 3 to 7 nM |  |  | COc1ccc(C(O)c2cc(-c3ncnc4cc(N5CCOCC5)ccc34)c(F)cc2F)cn1 (stereo not drawn) [Example 221, [2,4-Difluoro-5-(7-morpholin-4-yl-quinazolin-4-yl)-phenyl]-(6-methoxy-pyridin-3-yl)methanol] |  | Ki (Kv11.1 (hERG); Ki [Kv1.11 hERG], Table 7): 15000 to 25000 nM
8 | 500 to 5000 nM | 3 to 7 nM |  |  | OC(c1ccc2ncnn2c1)c1cc(-c2ncnc3cc(N4CCOCC4)ccc23)c(F)cc1F (stereo not drawn) [Example 222, [2,4-Difluro-5-(7-morpholin-4-yl-quinazolin-4-yl)-phenyl]-[l,2,4]-triazolo[1,5-a]pyridin-6-ylmethanol] |  | Ki (Kv11.1 (hERG); [3]): > 25000 nM
9 | 500 to 5000 nM | 7 to 30 nM |  |  | OC(c1cn2ccnc2cn1)c1cc(-c2ncnc3cc(N4CCOCC4)ccc23)c(F)cc1F (stereo not drawn) [Example 223, [2,4-Difluoro-5-(7-morpholin-4-yl-quinazolin-4-yl)-phenyl]imidazo-[1,2-a]pyrazin-6-yl-methanol] |  | Ki (Kv11.1 (hERG); [3]): > 25000 nM
10 | 500 to 5000 nM | 3 to 7 nM |  |  | COc1ccc(C(O)c2cc(-c3ncnc4cc(N5CCOCC5)ccc34)c(F)cc2F)nc1 (stereo not drawn) [Example 224, [2,4-Difluoro-5-(7-morpholin-4-yl-quinazolin-4-yl)-phenyl]-(5-methoxy-pyridin-2-yl)methanol] |  | Ki (Kv11.1 (hERG); Ki [Kv1.11 hERG], Table 7): 15000 to 25000 nM
11 |  |  | 500 to 5000 nM | 3 to 7 nM | COc1ccc(C(O)c2cc(-c3ncnc4cc(N5CCOCC5)cnc34)c(F)cc2Cl)nn1 (stereo not drawn) [Example 227, [2-Chloro-4-fluoro-5-(7-morpholin-4-yl-pyrido[3,2-d}-pyrimidin-4-yl)-phenyl]-(6-methoxy-pyridazin-3-yl)-methanol] | > 25000 nM | 
12 |  |  | 10000 to 30000 nM | > 30 nM | COc1ccc(C(O)c2cc(-c3ncnc4cc(N5CCOCC5)cnc34)c(F)cc2Cl)nn1 (stereo not drawn) [Example 228, [2-Chloro-4-fluoro-5-(7-morpholin-4-yl-pyrido[3,2-d}-pyrimidin-4-yl)-phenyl]-(6-methoxy-pyridazin-3-yl)-methanol] | > 25000 nM | 
13 |  |  | 500 to 5000 nM | 7 to 30 nM | CNC(=O)C(c1cc(-c2ncnc3cc(N4CCOCC4)ccc23)c(F)cc1Cl)c1nccnc1OC (stereo not drawn) [Example 229, 2-[2-Chloro-4-fluoro-5-(7-morpholin-4-yl-quinazolin-4-yl)-phenyl]-2-(3-methoxypyrazin-2-yl)-N-methyl-acetamide] | > 25000 nM | 
14 |  |  | 500 to 5000 nM | 7 to 30 nM | COc1nccnc1C(O)c1cc(-c2ncnc3cc(N4CCOCC4)cnc23)c(F)cc1Cl (stereo not drawn) [Example 231, [2-Chloro-4-fluoro-5-(7-morpholin-4-yl-pyrido[3,2-d}-pyrimidin-4-yl)-phenyl]-(3-methoxy-pyrazin-2-yl)-methanol] | > 25000 nM | 
15 |  |  | 10000 to 30000 nM | 7 to 30 nM | COc1nccnc1C(O)c1cc(-c2ncnc3cc(N4CCOCC4)cnc23)c(F)cc1Cl (stereo not drawn) [Example 232, [2-Chloro-4-fluoro-5-(7-morpholin-4-yl-pyrido[3,2-d}-pyrimidin-4-yl)-phenyl]-(3-methoxy-pyrazin-2-yl)-methanol] | > 25000 nM | 
16 |  |  | 10000 to 30000 nM | 7 to 30 nM | Cc1nccnc1[C@@H](O)c1ccc(F)c(-c2ncnc3cc(N4CCOCC4)cnc23)c1 [Example 233, (S)-[4-Fluoro-3-(7-morpholin-4-yl-pyrido[3,2-d}-pyrimidin-4-yl)-phenyl]-(3-methyl-pyrazin-2-yl)-methanol] | > 25000 nM | 
17 |  |  | < 500 nM | < 3 nM | Cc1nccnc1[C@H](O)c1ccc(F)c(-c2ncnc3cc(N4CCOCC4)cnc23)c1 [Example 234, (R)-[4-Fluoro-3-(7-morpholin-4-yl-pyrido[3,2-d}-pyrimidin-4-yl)-phenyl]-(3-methyl-pyrazin-2-yl)-methanol] | > 25000 nM | 
18 |  |  | < 500 nM | < 3 nM | Cc1nccnc1C(O)c1ccc(F)c(-c2ncnc3cc(N4CCOCC4)cnc23)c1 (stereo not drawn) [Example 237, [4-Fluoro-3-(7-morpholin-4-ylpyrido[3,2-d]pyrimidin-4-yl)phenyl]-(3-methylpyrazin-2-yl)methanol] |  | Ki (Kv11.1 (hERG); [5]): 10000 to 15000 nM
19 |  |  | 500 to 5000 nM | 7 to 30 nM | Cc1nccnc1C(O)c1cc(-c2ncnc3cc(N4CCOCC4)cnc23)c(F)cc1Cl (stereo not drawn) [Example 240, [2-Chloro-4-fluoro-5-(7-morpholin-4-yl-pyrido[3,2-d}-pyrimidin-4-yl)-phenyl]-(3-methyl-pyrazin-2-yl)-methanol] | > 25000 nM | 
20 |  |  | 5000 to 10000 nM | 7 to 30 nM | COc1nccnc1C(O)c1cc(-c2ncnc3cc(N4CCOCC4)cnc23)c(F)cc1Cl (stereo not drawn) [Example 247, [2-Chloro-4-fluoro-5-(7-morpholin-4-yl-pyrido[3,2-d}-pyrimidin-4-yl)-phenyl]-(3-methoxy-pyrazin-2-yl)-methanol] |  | Ki (Kv11.1 (hERG); [5]): 15000 to 25000 nM
21 |  |  | < 500 nM | < 3 nM | Cc1nccnc1[C@H](O)c1ccc(F)c(-c2ncnc3cc(N4CCOCC4)cc(F)c23)c1 [Example 248, (R)-[4-Fluoro-3-(5-fluoro-7-morpholin-4-ylquinazolin-4-yl)-phenyl]-(3-methyl-pyrazin-2-yl)-methanol] | > 25000 nM | 

Row | SMILES | IC50 ([1]; Table 7, HCT116 cells) | IC50 (DNA-PK; Table 7) | IC50 [1, 4] | IC50 (DNA-PK; biochemical DNA-PK assay) | Ki (Kv11.1 (hERG); [6]) | further results
22 | [2H]c1c(N2CCOCC2)cc2ncnc(-c3cc(C(O)c4nccnc4C)ccc3F)c2c1[2H] (stereo not drawn) [Example 226, [3-(5,6-Dideuterio-7-morpholino-quinazolin-4-yl)-4-fluorophenyl]-(3-melhylpyrazin-2-yl)-methanol] |  |  | < 500 nM | 3 to 7 nM |  | Ki (Kv11.1 (hERG); [5]): > 25000 nM
23 | [2H]C1([2H])OC([2H])([2H])C([2H])([2H])N(c2ccc3c(-c4cc(C(O)c5nccnc5C)ccc4F)ncnc3c2)C1([2H])[2H] (stereo not drawn) [Example 238, [4-Fluoro-3-[7-(2,2,3,3,5,5,6,6-octadeuteriomorpholin-4-yl)quinazolin-4-yl]phenyl]-(3-methyl-pyrazin-2-yl)-methanol] |  |  | < 500 nM | < 3 nM |  | Ki (Kv11.1 (hERG); [5]): 15000 to 25000 nM
24 | [2H]C1([2H])OC([2H])([2H])C([2H])([2H])N(c2ccc3c(-c4cc(C(O)c5nccnc5OC)c(Cl)cc4F)ncnc3c2)C1([2H])[2H] (stereo not drawn) [Example 241, [2-Chloro-4-fluoro-5-[7-(2,2,3,3,5,5,6,6-octadeuteriomorpholin-4-yl)quinazolin-4-yl]phenyl]-(3-methoxypyrazin-2-yl)methanol] |  |  | < 500 nM | < 3 nM |  | Ki (Kv11.1 (hERG); [5]): 10000 to 15000 nM
25 | [2H]C1([2H])OC([2H])([2H])C([2H])([2H])N(c2ccc3c(-c4cc(C(O)c5nccnc5OC)c(Cl)cc4F)ncnc3c2)C1([2H])[2H] (stereo not drawn) [Example 242, [2-Chloro-4-fluoro-5-[7-(2,2,3,3,5,5,6,6-octadeuteriomorpholin-4-yl)quinazolin-4-yl]phenyl]-(3-methoxypyrazin-2-yl)methanol] |  |  | < 500 nM | < 3 nM |  | Ki (Kv11.1 (hERG); [5]): 15000 to 25000 nM
26 | [2H]C1([2H])OC([2H])([2H])C([2H])([2H])N(c2ccc3c(-c4cc([C@H](O)c5nccnc5C)ccc4F)ncnc3c2)C1([2H])[2H] [Example 243, (S)-[4-Fluoro-3-[7-(2,2,3,3,5,5,6,6-octadeuteriomorpholin-4-yl)quinazolin-4-yl]phenyl]-(3-methylpyrazin-2-yl)methanol] |  |  | 500 to 5000 nM | 7 to 30 nM | 15000 to 25000 nM | 
